We go through 9 molecules from PMC12408681, “Tail-less precursors in synthetic cannabinoid production: investigating a clandestine laboratory, seized samples, and CB1 activity” (Archives of Toxicology, 2025).

Values joined by “and” are separate entries in the source; they are usually repeats but may differ in a detail not shown here. Identical values can stand only once.

Test [1] concerns the target T1, human CB1 (Homo sapiens, UniProt P21554). The experiment in a line: NanoBiT CB1 β-arrestin 2 recruitment assay. The test is classed as cell-based. Set-up: expressed in transfected cells. To be noted: for Efficacy (Emax) Mean Diff: CP55,940 as reference. For orientation: Arrestin recruitment assays detect the binding of arrestin to an activated receptor.
Target sequence in this assay (P21554 whole entry): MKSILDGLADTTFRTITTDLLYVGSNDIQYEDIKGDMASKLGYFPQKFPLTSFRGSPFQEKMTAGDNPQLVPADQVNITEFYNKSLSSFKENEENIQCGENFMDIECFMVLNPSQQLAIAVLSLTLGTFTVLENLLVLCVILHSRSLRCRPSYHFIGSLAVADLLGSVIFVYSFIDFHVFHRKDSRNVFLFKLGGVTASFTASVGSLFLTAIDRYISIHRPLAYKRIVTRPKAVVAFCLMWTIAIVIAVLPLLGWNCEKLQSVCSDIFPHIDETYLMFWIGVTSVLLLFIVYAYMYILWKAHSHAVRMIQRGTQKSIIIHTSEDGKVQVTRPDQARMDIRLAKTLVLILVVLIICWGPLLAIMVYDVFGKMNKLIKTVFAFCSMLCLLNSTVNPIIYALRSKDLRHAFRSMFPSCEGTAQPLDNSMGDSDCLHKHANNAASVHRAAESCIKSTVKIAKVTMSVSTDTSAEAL
Target sequence in this assay (P32121 whole entry partner): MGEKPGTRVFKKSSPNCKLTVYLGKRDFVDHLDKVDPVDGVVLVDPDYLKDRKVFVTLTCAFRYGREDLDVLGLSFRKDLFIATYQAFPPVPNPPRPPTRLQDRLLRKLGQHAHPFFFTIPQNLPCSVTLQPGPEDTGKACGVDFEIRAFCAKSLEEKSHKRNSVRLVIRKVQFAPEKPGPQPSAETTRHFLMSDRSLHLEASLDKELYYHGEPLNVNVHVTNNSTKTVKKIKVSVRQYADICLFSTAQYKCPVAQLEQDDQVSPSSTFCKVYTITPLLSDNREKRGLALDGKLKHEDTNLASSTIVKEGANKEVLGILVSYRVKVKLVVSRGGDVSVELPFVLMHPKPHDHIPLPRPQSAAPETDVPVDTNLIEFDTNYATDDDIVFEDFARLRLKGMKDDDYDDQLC
Test [2] deals with T1, human CB1. The experiment in a line: AequoScreen CB1 intracellular Ca2+ release assay. Details: host or cells: CHO-K1 (AequoZen recombinant cell line). The test is classed as cell-based.
Target sequence in this assay (P21554 whole entry): as the sequence (P21554 whole entry) above
In test [3] the test system is paclitaxel-induced peripheral neuropathy. Details: method as in one study (reference not given). The note with it: rats; ref one study (reference not given); cited from earlier work.
[4] abbreviates: vs 5% MDMB-4en-PINACA, only concentration of final product in mixture.
The mark [5] stands for this setting: vs 5% MDMB-4en-PINACA, total concentration of SCRAs in mixture.
[6] abbreviates: vs 25% MDMB-4en-PINACA, only concentration of final product in mixture.
Setting [7] is: vs 25% MDMB-4en-PINACA, total concentration of SCRAs in mixture.
Setting [8] is: vs 50% MDMB-4en-PINACA, only concentration of final product in mixture.
Where [9] appears, read: vs 50% MDMB-4en-PINACA, total concentration of SCRAs in mixture.
[10] abbreviates: vs 75% MDMB-4en-PINACA, only concentration of final product in mixture.
Setting [11] is: vs 75% MDMB-4en-PINACA, total concentration of SCRAs in mixture.
Where [12] appears, read: Potency (EC50, nM) β-arrestin 2, Table 4, reference standards and precursor:final SCRA mixtures, total (combined) SCRA concentration, n ≥ 3.
[13] abbreviates: Potency (EC50, nM) β-arrestin 2, Table 5, Ref (reference standard).
The mark [14] stands for this setting: Table 4, reference standards and mixtures, total SCRA concentration.
[15] abbreviates: Table 5, Ref (reference standard).
The mark [16] stands for this setting: Potency (EC50, nM) AequoScreen, Table 4, reference standards and mixtures, total SCRA concentration, n ≥ 3.
Setting [17] is: Potency (EC50, nM) AequoScreen, Table 5, Ref (reference standard).
[18] abbreviates: Table 5, Ref (reference standard), read-out: Potency (EC50, nM) β-arrestin 2.
The mark [19] stands for this setting: Table 5, Ref (reference standard), read-out: Potency (EC50, nM) AequoScreen.

Take `C=CCCCn1nc(C(=O)N[C@H](C(=O)OC)C(C)(C)C)c2ccccc21` [100% MDMB-4en-PINACA]: the “Efficacy (Emax) Mean Diff” value is recorded as -14.08 at human CB1 [1] (setting [4]); -3.010 at human CB1 [1] (setting [5]); -32.68 at human CB1 [1] (setting [6]); -24.05 at human CB1 [1] (setting [7]); -21.46 at human CB1 [1] (setting [8]); -9.133 on human CB1 [1] (setting [9]). Moreover, the “Efficacy (Emax) Mean Diff” value at human CB1 [1] (setting [10]) is 14.76; at human CB1 [1] (setting [11]), 26.09.
As for `COC(=O)[C@@H](NC(=O)c1n[nH]c2ccccc12)C(C)(C)C` [MDMB-INACA (ref)], the “Efficacy (Emax) Mean Diff” value on human CB1 [1] (vs MDMB-INACA (seizure)) is reported as -144.0; on human CB1 [2] (vs MDMB-INACA (seizure), CP55,940 as reference), 1.797.
For the molecule `CC(C)(C)C(NC(=O)c1n[nH]c2ccccc12)C(N)=O` (stereo not shown) [ADB-INACA], the “Analgesic effects on paclitaxel-induced peripheral neuropathy” value in test [3] was “analgesic effects”.
For `CCCCn1nc(C(=O)N[C@H](C(N)=O)C(C)(C)C)c2ccccc21` [100% ADB-BUTINACA], the “Efficacy (Emax) Mean Diff” value on human CB1 [1] (vs 5% ADB-BUTINACA, only concentration of final product in mixture) was determined as 76.63; on human CB1 [1] (vs 5% ADB-BUTINACA, total concentration of SCRAs in mixture) it was 98.60; on human CB1 [1] (vs 25% ADB-BUTINACA, only concentration of final product in mixture) it was 52.66; at human CB1 [1] (vs 25% ADB-BUTINACA, total concentration of SCRAs in mixture) it was 66.35; on human CB1 [1] (vs 50% ADB-BUTINACA, only concentration of final product in mixture), 144.9; at human CB1 [1] (vs 50% ADB-BUTINACA, total concentration of SCRAs in mixture) it was 155.6. Also, the “Efficacy (Emax) Mean Diff” value was 60.28 at human CB1 [1] (vs 75% ADB-BUTINACA, only concentration of final product in mixture) and 70.25 on human CB1 [1] (vs 75% ADB-BUTINACA, total concentration of SCRAs in mixture).
In the case of `CCCCn1nc(C(=O)NC(C(N)=O)C(C)(C)C)c2ccccc21` (stereo not shown) [ADB-BUTINACA], the EC50 (usually the concentration needed to bring the measured effect to its halfway point) on human CB1 [1] (setting [12]) was 6.7 nM and 6.73 nM; at human CB1 [1] (setting [13]), 5.65 nM; at human CB1 [2] (setting [16]), 5.6 nM and 5.64 nM; on human CB1 [2] (setting [17]) it was 7.27 nM. Moreover, the “Efficacy (% of CP55,940) Emax β-arrestin 2” value was 1282 % of CP55,940 and 1280 % of CP55,940 on human CB1 [1] (setting [14]); 1330 % of CP55,940 on human CB1 [1] (setting [15]). In addition, the “Efficacy (% of JWH-018) Emax AequoScreen” value is on record as 105 % of JWH-018 on human CB1 [2] (setting [14]) and 111 % of JWH-018 on human CB1 [2] (setting [15]).
Regarding `C=CCCCn1nc(C(=O)NC(C(=O)OC)C(C)(C)C)c2ccccc21` (stereo not shown) [MDMB-4en-PINACA, methyl 3,3-dimethyl-2-(1-(pent-4-en-1-yl)-1H-indazole-3-carboxamido)butanoate], the EC50 was 1.8 nM on human CB1 [1] (setting [12]); 1.8 nM at human CB1 [1] (setting [13]); 1.2 nM and 1.17 nM at human CB1 [2] (setting [16]); 1.89 nM at human CB1 [2] (setting [17]). For the same molecule, the “Efficacy (% of CP55,940) Emax β-arrestin 2” value was 1088 % of CP55,940 and 1090 % of CP55,940 at human CB1 [1] (setting [14]); 1090 % of CP55,940 on human CB1 [1] (setting [15]). For the same molecule, the entries for the “Efficacy (% of JWH-018) Emax AequoScreen” value at human CB1 [2] (setting [14]) and on human CB1 [2] (setting [15]) were 104 % of JWH-018 and 109 % of JWH-018, respectively.
With `COC(=O)[C@@H](NC(=O)c1n[nH]c2ccccc12)C(C)(C)C` [100% MDMB-INACA], the “Efficacy (Emax) Mean Diff” value on human CB1 [1] (setting [4]) stood at 550.8; on human CB1 [1] (setting [5]), 539.7; on human CB1 [1] (setting [6]), 569.4; on human CB1 [1] (setting [7]), 560.7; at human CB1 [1] (setting [8]) it was 558.2; at human CB1 [1] (setting [9]), 545.8. Further, the “Efficacy (Emax) Mean Diff” value at human CB1 [1] (setting [10]) is reported as 521.9; at human CB1 [1] (setting [11]), 510.6; at human CB1 [1] (vs 100% MDMB-4en-PINACA, only concentration of final product in mixture) it was 536.7; at human CB1 [1] (vs 100% MDMB-4en-PINACA, total concentration of SCRAs in mixture) it was 536.7; at human CB1 [2] (vs 5% MDMB-4en-PINACA, only concentration of final product in mixture, JWH-018 as reference) it was 2.037; on human CB1 [2] (vs 5% MDMB-4en-PINACA, total concentration of SCRAs in mixture, JWH-018 as reference) it was 6.744. Further, the “Efficacy (Emax) Mean Diff” value on human CB1 [2] (vs 25% MDMB-4en-PINACA, only concentration of final product in mixture, JWH-018 as reference) is reported as -0.07601; on human CB1 [2] (vs 25% MDMB-4en-PINACA, total concentration of SCRAs in mixture, JWH-018 as reference) it was 2.036; on human CB1 [2] (vs 50% MDMB-4en-PINACA, only concentration of final product in mixture, JWH-018 as reference) it was 9.030; on human CB1 [2] (vs 50% MDMB-4en-PINACA, total concentration of SCRAs in mixture, JWH-018 as reference), -0.07656; on human CB1 [2] (vs 75% MDMB-4en-PINACA, only concentration of final product in mixture, JWH-018 as reference) it was 6.745; on human CB1 [2] (vs 75% MDMB-4en-PINACA, total concentration of SCRAs in mixture, JWH-018 as reference), 9.029. Also, the “Efficacy (Emax) Mean Diff” value worked out at 8.229 at human CB1 [2] (vs 100% MDMB-4en-PINACA, only concentration of final product in mixture, JWH-018 as reference) and 8.229 at human CB1 [2] (vs 100% MDMB-4en-PINACA, total concentration of SCRAs in mixture, JWH-018 as reference).
Regarding `CCCCCn1cc(C(=O)c2cccc3ccccc23)c2ccccc21` [JWH-018, reference compound], the “Efficacy (% of CP55,940) Emax β-arrestin 2” value at human CB1 [1] (setting [14]) is given as 335 % of CP55,940; on human CB1 [1] (setting [15]), 352 % of CP55,940. Moreover, the EC50 on human CB1 [1] (Table 4, reference standards and precursor:final SCRA mixtures, total (combined) SCRA concentration, n ≥ 3, read-out: Potency (EC50, nM) β-arrestin 2) is 9.55 nM; at human CB1 [1] (setting [18]), 11 nM; at human CB1 [2] (Table 4, reference standards and mixtures, total SCRA concentration, n ≥ 3, read-out: Potency (EC50, nM) AequoScreen) it was 5.14 nM; at human CB1 [2] (setting [19]), 13.5 nM. For the same molecule, the entries for the “Efficacy (% of JWH-018) Emax AequoScreen” value on human CB1 [2] (setting [14]) and on human CB1 [2] (setting [15]) were 97.6 % of JWH-018 and 99.8 % of JWH-018, respectively.
`COC(=O)C(NC(=O)c1n[nH]c2ccccc12)C(C)(C)C` (stereo not shown) [MDMB-INACA]: in test [3], the “Analgesic effects on paclitaxel-induced peripheral neuropathy” value was “analgesic effects”. The “Efficacy (% of CP55,940) Emax β-arrestin 2” value is 294 % of CP55,940 at human CB1 [1] (setting [15]) and 438 % of CP55,940 on human CB1 [1] (Table 5, Seizure (precursor seized in Switzerland)). In addition, the EC50 at human CB1 [1] (setting [18]) amounted to 2400 nM; at human CB1 [1] (Table 5, Seizure (precursor seized in Switzerland), read-out: Potency (EC50, nM) β-arrestin 2), 2190 nM; on human CB1 [2] (setting [19]), 11200 nM; at human CB1 [2] (Table 5, Seizure (precursor seized in Switzerland), read-out: Potency (EC50, nM) AequoScreen) it was 7610 nM.
